Assay results published in ChEMBL document CHEMBL4834443, “Identification of bioactive compounds from mulberry enhancing glucose-stimulated insulin secretion” (Bioorg Med Chem Lett, 2021).
Activity calls are given as the source filed them. No cut-off for these calls is given here.

Columns and labels:
INS1 [1] = experiment: Cytotoxicity against rat INS1 cells assessed as cell viability at 1 to 10 uM measured after 24 hrs by MTT assay; format: cell-based; details: ins1, 24 h, dose 1-10 µM
INS1 [2] = experiment: Stimulation of glucose stimulated insulin secretion in rat INS1 cells assessed as glucose stimulation index at 2.5 uM in presence of glucose measured after 1 hr; format: functional
INS1 [3] = experiment: Stimulation of glucose stimulated insulin secretion in rat INS1 cells assessed as glucose stimulation index at 5 uM in presence of glucose measured after 1 hr; format: functional
INS1 [4] = experiment: Induction of insulin secretion in rat INS1 cells assessed as increase in phosphorylation of IRS 2 at Ser 731 at 2.5 uM measured after 24 hrs by western blot assay; format: functional, cell-based
INS1 [5] = experiment: Induction of insulin secretion in rat INS1 cells assessed as increase in IRS-2 expression at 2.5 uM measured after 24 hrs by western blot assay; format: functional, cell-based
INS1 [6] = experiment: Induction of insulin secretion in rat INS1 cells assessed as increase in phosphorylation of PI3K at 2.5 uM measured after 24 hrs by western blot assay; format: functional, cell-based
INS1 [7] = experiment: Induction of insulin secretion in rat INS1 cells assessed as increase in PI3K expression at 2.5 uM measured after 24 hrs by western blot assay; format: functional, cell-based
INS1 [8] = experiment: Induction of insulin secretion in rat INS1 cells assessed as increase in phosphorylation of AKT at Ser 473 at 2.5 uM measured after 24 hrs by western blot assay; format: functional, cell-based
INS1 [9] = experiment: Induction of insulin secretion in rat INS1 cells assessed as increase in AKT expression at 2.5 uM measured after 24 hrs by western blot assay; format: functional, cell-based
INS1 [10] = experiment: Induction of insulin secretion in rat INS1 cells assessed as increase in PDX-1 expression at 2.5 uM measured after 24 hrs by western blot assay; format: functional, cell-based
INS1 [11] = experiment: Cytotoxicity against rat INS1 cells assessed as cell viability at 10 uM measured after 24 hrs by MTT assay; format: cell-based; details: ins1, 24 h
INS1 [12] = experiment: Induction of insulin secretion in rat INS1 cells assessed as increase in phosphorylation of IRS 2 at Ser 731 at 5 uM measured after 24 hrs by western blot assay; format: functional, cell-based
INS1 [13] = experiment: Induction of insulin secretion in rat INS1 cells assessed as increase in IRS-2 expression at 5 uM measured after 24 hrs by western blot assay; format: functional, cell-based
INS1 [14] = experiment: Induction of insulin secretion in rat INS1 cells assessed as increase in phosphorylation of PI3K at 5 uM measured after 24 hrs by western blot assay; format: functional, cell-based
INS1 [15] = experiment: Induction of insulin secretion in rat INS1 cells assessed as increase in PI3K expression at 5 uM measured after 24 hrs by western blot assay; format: functional, cell-based
INS1 [16] = experiment: Induction of insulin secretion in rat INS1 cells assessed as increase in phosphorylation of AKT at Ser 473 at 5 uM measured after 24 hrs by western blot assay; format: functional, cell-based
INS1 [17] = experiment: Induction of insulin secretion in rat INS1 cells assessed as increase in AKT expression at 5 uM measured after 24 hrs by western blot assay; format: functional, cell-based
INS1 [18] = experiment: Induction of insulin secretion in rat INS1 cells assessed as increase in PDX-1 expression at 5 uM measured after 24 hrs by western blot assay; format: functional, cell-based

COC(=O)[C@@H]1CCC(=O)N1
Activity (INS1 [1]): Non-Toxic

C[C@@H](C(=O)O)[C@H]1CCO[C@]1(C)O
Activity (INS1 [1]): Non-Toxic

O=Cc1coc2ccccc12
Activity (INS1 [1]): Non-Toxic

O=C1CC[C@@H](O)N1
Activity (INS1 [1]): Non-Toxic
Activity_index (INS1 [2]): 6.57
Activity_index (INS1 [3]): 11.31
Activity (INS1 [4]): Active
Activity (INS1 [5]): Active
Activity (INS1 [6]): Active
Activity (INS1 [7]): Active
Activity (INS1 [8]): Active
Activity (INS1 [9]): Active
Activity (INS1 [10]): Active

Cc1ccc(S(=O)(=O)NC(=O)NN2CC3CCCC3C2)cc1 (configuration not stated) [GLICLAZIDE]
Activity (INS1 [11]): Toxic
Activity_index (INS1 [2]): 2.46
Activity_index (INS1 [3]): 3.47

c1ccc2[nH]ccc2c1 [INDOLE]
Activity (INS1 [1]): Non-Toxic
Activity_index (INS1 [2]): 3.31
Activity_index (INS1 [3]): 7.72
Activity (INS1 [12]): Active
Activity (INS1 [13]): Active
Activity (INS1 [14]): Active
Activity (INS1 [15]): Active
Activity (INS1 [16]): Active
Activity (INS1 [17]): Active
Activity (INS1 [18]): Active

CC1(C)C[C@H](O)C[C@@]2(C)OC(=O)C=C12 [LOLIOLIDE]
Activity (INS1 [1]): Non-Toxic
